Values of other authors as cited in patent publication US20070208041A1, “Compositions for the treatment and prevention of heart disease and methods of using same” (priority 2005, published 2007).

Experiments:
[1] = tested on: phenylephrine-constricted rat aorta
[2] = allopurinol alone

Compound | effect of ALDH-2 inhibitor benomyl on vasodilator response [1] | outcome of clinical trials [2]
O=[N+]([O-])OCC(CO[N+](=O)[O-])O[N+](=O)[O-] [GTN] | reduced the vasodilator potency, but not the efficacy | 
Oc1ncnc2[nH]ncc12 [allopurinol] |  | not successful
O=[N+]([O-])O[C@H]1CO[C@H]2[C@@H]1OC[C@H]2O[N+](=O)[O-] [isosorbide dinitrate, 1,4:3,6-dianhydrosorbitol 2,5-dinitrate] | not affected | 
O=[N+]([O-])O[C@@H]1CO[C@H]2[C@@H]1OC[C@@H]2O [isosorbide-5-mononitrate, 1,4:3,6-dianhydrosorbitol 5-mononitrate] | not affected | 
O=[N+]([O-])OCC(CO)(CO)CO [pentaerythritol mononitrate] | not affected | 
